Activity calls are given as the source filed them. No cut-off for these calls is given here.
How the values were obtained:
[1] = biological target: RAC-alpha serine/threonine-protein kinase (Homo sapiens) (UniProt P31749); settings: GISTT1, 0.1 uM
Description: Inhibition of AKT autophosphorylation at T308 residue in human GISTT1 cells harboring c-KIT 560 to 578 deletion/T670I mutant at 0.1 uM measured after 2 hrs by Western blot analysis

[2] = system: Mast/stem cell growth factor receptor Kit (Homo sapiens), P10721 [UNDEFINED MUTATION]; settings: GISTT1, 0.1 uM
Description: Inhibition of c-KIT 560 to 578 deletion/T670I mutant in human GISTT1 cells assessed as reduction in c-KIT autophosphorylation at Y703 residue at 0.1 uM measured after 2 hrs by Western blot analysis

[3] = system: Mast/stem cell growth factor receptor Kit (Homo sapiens), P10721 [UNDEFINED MUTATION]; settings: GISTT1, 0.1 uM; remark: listed apart in the source
Description: Inhibition of c-KIT 560 to 578 deletion mutant in human GISTT1 cells assessed as reduction in AKT phosphorylation at T308 residue at 0.1 uM measured after 2 hrs by Western blot analysis

[4] = system: Mast/stem cell growth factor receptor Kit (Homo sapiens), P10721 [UNDEFINED MUTATION]; settings: GISTT1, 0.1 uM; remark: listed apart in the source
Description: Inhibition of c-KIT 560 to 578 deletion mutant in human GISTT1 cells assessed as reduction in AKT phosphorylation at S473 residue at 0.1 uM measured after 2 hrs by Western blot analysis

[5] = system: Mast/stem cell growth factor receptor Kit (Homo sapiens), P10721 [UNDEFINED MUTATION]; settings: GISTT1, 0.1 uM; remark: listed apart in the source
Description: Inhibition of c-KIT 560 to 578 deletion mutant in human GISTT1 cells assessed as reduction in pS6 phosphorylation at S236 residue at 0.1 uM measured after 2 hrs by Western blot analysis

[6] = system: Mast/stem cell growth factor receptor Kit (Homo sapiens), P10721 [UNDEFINED MUTATION]; settings: GISTT1, 0.1 uM; remark: listed apart in the source
Description: Inhibition of c-KIT 560 to 578 deletion/T670I mutant in human GISTT1 cells assessed as reduction in AKT phosphorylation at T308 residue at 0.1 uM measured after 2 hrs by Western blot analysis

[7] = system: Mast/stem cell growth factor receptor Kit (Homo sapiens), P10721 [UNDEFINED MUTATION]; settings: GISTT1, 0.1 uM; remark: listed apart in the source
Description: Inhibition of c-KIT 560 to 578 deletion/T670I mutant in human GISTT1 cells assessed as reduction in pS6 phosphorylation at S235 residue at 0.1 uM measured after 2 hrs by Western blot analysis

[8] = system: Mast/stem cell growth factor receptor Kit (Homo sapiens), P10721 [UNDEFINED MUTATION]; settings: GISTT1, 0.1 uM; remark: listed apart in the source
Description: Inhibition of c-KIT 560 to 578 deletion/T670I mutant in human GISTT1 cells assessed as reduction in ERK phosphorylation at T204 residue at 0.1 uM measured after 2 hrs by Western blot analysis

[9] = system: Mast/stem cell growth factor receptor Kit (Homo sapiens), P10721 [UNDEFINED MUTATION]; settings: 0.1 uM
Description: Inhibition of c-KIT 560 to 578 deletion/T670I mutant in human GIST5R assessed as reduction in AKT phosphorylation at S473 residue at 0.1 uM measured after 2 hrs by Western blot analysis

[10] = system: Mast/stem cell growth factor receptor Kit (Homo sapiens), P10721 [UNDEFINED MUTATION]; settings: 0.1 uM; remark: listed apart in the source
Description: Inhibition of c-KIT 560 to 578 deletion/T670I mutant in human GIST5R assessed as reduction in pS6 phosphorylation at S236 residue at 0.1 uM measured after 2 hrs by Western blot analysis

Mus musculus [11] = experiment: Antitumor activity against mouse BAF3(transformed) cells harboring c-KIT T670I mutant implanted in BALB/c nu mouse assessed as tumor growth inhibition administered via oral gavage for 11 days; format: functional
[12] = biological target: Vascular endothelial growth factor receptor 3 (Homo sapiens) (UniProt P35916); experiment: Binding affinity to wild-type human partial length FLT4 (E821 to E1196 residues) expressed in bacterial expression system assessed as residual binding level at 1 uM by Kinomescan method relative to control
[13] = biological target: Platelet-derived growth factor receptor alpha (Homo sapiens, UniProt P16234); experiment: Binding affinity to wild-type human partial length PDGFRA (V575 to D1002 residues) expressed in mammalian expression system assessed as residual binding level at 1 uM by Kinomescan method relative to control
[14] = biological target: Macrophage colony-stimulating factor 1 receptor (Homo sapiens, UniProt P07333); experiment: Inhibition of recombinant human His-tagged CSF1R cytoplasmic domain (538 to 910 residues) expressed in baculovirus expression system by Z-lyte assay
[15] = biological target: Proto-oncogene tyrosine-protein kinase receptor Ret (Homo sapiens, UniProt P07949); experiment: Inhibition of recombinant human RET cytoplasmic domain (658 to 1114 residues) expressed in baculovirus expression system by Z-lyte assay
[16] = biological target: Macrophage colony-stimulating factor 1 receptor (Mus musculus) (UniProt P09581); experiment: Inhibition of CSF1R in mouse BAF3(transformed) cells assessed as growth inhibition after 72 hrs by CCK8 assay
[17] = biological target: Platelet-derived growth factor receptor alpha (Mus musculus) (UniProt P26618); experiment: Inhibition of PDGFRA in mouse BAF3(transformed) cells assessed as growth inhibition after 72 hrs by CCK8 assay
[18] = biological target: T1, Mast/stem cell growth factor receptor Kit (Homo sapiens, UniProt P10721, 560-578DEL); format: cell-based, GISTT1
[19] = biological target: T2, Mast/stem cell growth factor receptor Kit (Homo sapiens, UniProt P10721, 560-578DEL/T670I); format: cell-based
[20] = biological target: T1, Mast/stem cell growth factor receptor Kit; format: cell-based, GISTT1; remark: listed apart in the source
[21] = biological target: T2, Mast/stem cell growth factor receptor Kit; format: cell-based, GISTT1
[22] = biological target: T2, Mast/stem cell growth factor receptor Kit
[23] = biological target: T2, Mast/stem cell growth factor receptor Kit; remark: listed apart in the source
[24] = biological target: T2, Mast/stem cell growth factor receptor Kit; remark: listed apart in the source
[25] = biological target: T2, Mast/stem cell growth factor receptor Kit; remark: listed apart in the source
[26] = biological target: RAC-alpha serine/threonine-protein kinase (Homo sapiens) (UniProt P31749); format: cell-based; settings: GISTT1
GISTT1 [27] = format: functional, cell-based; settings: Homo sapiens
GISTT1 [28] = format: functional, cell-based; settings: Homo sapiens; remark: listed apart in the source
GISTT1 [29] = format: functional, cell-based; settings: Homo sapiens; remark: listed apart in the source
[30] = Tmax in Sprague-Dawley rat at 1 mg/kg, iv by LC-MS/MS analysis; format: ADME, organism-based; settings: in vivo
[31] = AUC (0 to t) in Sprague-Dawley rat at 10 mg/kg, po by LC-MS/MS analysis; format: ADME, organism-based; settings: in vivo
[32] = Tmax in Sprague-Dawley rat at 10 mg/kg, po by LC-MS/MS analysis; format: ADME, organism-based; settings: in vivo
[33] = Oral bioavailability in Sprague-Dawley rat at 10 mg/kg by LC-MS/MS analysis; format: ADME, organism-based; settings: in vivo
[34] = Half life in mouse at 1 mg/kg, iv by LC-MS/MS analysis; format: ADME, organism-based; settings: in vivo
[35] = AUC (0 to t) in mouse at 10 mg/kg, po by LC-MS/MS analysis; format: ADME, organism-based; settings: in vivo
[36] = Oral bioavailability in mouse at 10 mg/kg by LC-MS/MS analysis; format: ADME, organism-based; settings: in vivo
[37] = AUC (0 to t) in Beagle dog at 1 mg/kg, iv by LC-MS/MS analysis; format: ADME, organism-based, Canis lupus familiaris; settings: in vivo
[38] = Tmax in Beagle dog at 1 mg/kg, iv by LC-MS/MS analysis; format: ADME, organism-based, Canis lupus familiaris; settings: in vivo
[39] = Tmax in Beagle dog at 5 mg/kg, po by LC-MS/MS analysis; format: ADME, organism-based, Canis lupus familiaris; settings: in vivo
[40] = Oral bioavailability in Beagle dog at 5 mg/kg by LC-MS/MS analysis; format: ADME, organism-based, Canis lupus familiaris; settings: in vivo
Mus musculus [41] = format: functional, organism-based; settings: BALB/c, 80 mg/kg, TDE = time-dependent effect
Mus musculus [42] = format: functional, organism-based; settings: BALB/c, 80 mg/kg, TDE = time-dependent effect; remark: listed apart in the source
Mus musculus [43] = format: functional, organism-based; settings: BALB/c, 80 mg/kg
Mus musculus [44] = format: functional, organism-based; settings: BALB/c, 80 mg/kg; remark: listed apart in the source
[45] = Antitumor activity against mouse BAF3(transformed) cells harboring c-KIT D820G mutant implanted in BALB/c nu mouse assessed as tumor growth inhibition at 80 mg/kg/day, po administered via gavage for 9 days relative to control; format: functional; settings: 216 h, read-out: TGI
GISTT1 [46] = format: functional, Homo sapiens; settings: Mus musculus, GISTT1, po, 672 h; read-out: TGI
Homo sapiens [47] = format: functional; settings: 20 mg/kg
Homo sapiens [48] = format: functional, cell-based
[49] = Toxicity in BALB/c nu mouse implanted with mouse BAF3(transformed) cells harboring c-KIT D820G mutant assessed as change in body weight at 40 to 80 mg/kg/day, po administered via gavage for 9 days measured daily during compound dosing; format: organism-based; settings: in vivo, 216 h
[50] = system: Mast/stem cell growth factor receptor Kit (Homo sapiens), P10721 [V560D]; settings: Mus musculus
[51] = system: Mast/stem cell growth factor receptor Kit (Homo sapiens), P10721 [K642E]

Chain of Mast/stem cell growth factor receptor Kit (Homo sapiens), P10721 [UNDEFINED MUTATION] (P10721 whole entry, looked up, change not shown): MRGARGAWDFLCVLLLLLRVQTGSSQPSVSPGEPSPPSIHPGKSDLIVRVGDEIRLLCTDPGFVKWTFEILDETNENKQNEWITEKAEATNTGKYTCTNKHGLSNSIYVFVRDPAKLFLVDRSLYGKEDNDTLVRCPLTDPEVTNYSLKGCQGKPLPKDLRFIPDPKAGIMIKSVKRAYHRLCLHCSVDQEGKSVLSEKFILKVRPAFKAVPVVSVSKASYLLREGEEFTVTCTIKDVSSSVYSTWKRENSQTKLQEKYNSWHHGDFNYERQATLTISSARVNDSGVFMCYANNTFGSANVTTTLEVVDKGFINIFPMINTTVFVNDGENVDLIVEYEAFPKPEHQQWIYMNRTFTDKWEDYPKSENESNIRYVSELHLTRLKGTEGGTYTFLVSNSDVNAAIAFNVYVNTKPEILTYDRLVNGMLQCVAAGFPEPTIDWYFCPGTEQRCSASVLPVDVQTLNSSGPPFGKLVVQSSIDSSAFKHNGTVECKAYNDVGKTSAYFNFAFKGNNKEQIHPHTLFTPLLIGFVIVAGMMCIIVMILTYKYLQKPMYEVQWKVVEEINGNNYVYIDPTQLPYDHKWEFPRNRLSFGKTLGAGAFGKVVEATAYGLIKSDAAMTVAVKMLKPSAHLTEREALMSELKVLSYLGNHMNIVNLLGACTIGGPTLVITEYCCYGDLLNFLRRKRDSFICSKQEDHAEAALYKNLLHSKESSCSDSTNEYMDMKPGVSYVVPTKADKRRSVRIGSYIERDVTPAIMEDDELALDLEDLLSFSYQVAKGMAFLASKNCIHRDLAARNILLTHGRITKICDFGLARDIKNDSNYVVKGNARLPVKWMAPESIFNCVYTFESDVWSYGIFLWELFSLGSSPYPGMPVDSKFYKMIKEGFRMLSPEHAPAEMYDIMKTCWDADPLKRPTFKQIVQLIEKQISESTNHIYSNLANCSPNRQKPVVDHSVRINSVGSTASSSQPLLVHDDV
T2 sequence (P10721 whole entry, looked up, stated change not applied): as the sequence (P10721 whole entry, looked up, change not shown) above
Chain of RAC-alpha serine/threonine-protein kinase (Homo sapiens) (P31749 whole entry): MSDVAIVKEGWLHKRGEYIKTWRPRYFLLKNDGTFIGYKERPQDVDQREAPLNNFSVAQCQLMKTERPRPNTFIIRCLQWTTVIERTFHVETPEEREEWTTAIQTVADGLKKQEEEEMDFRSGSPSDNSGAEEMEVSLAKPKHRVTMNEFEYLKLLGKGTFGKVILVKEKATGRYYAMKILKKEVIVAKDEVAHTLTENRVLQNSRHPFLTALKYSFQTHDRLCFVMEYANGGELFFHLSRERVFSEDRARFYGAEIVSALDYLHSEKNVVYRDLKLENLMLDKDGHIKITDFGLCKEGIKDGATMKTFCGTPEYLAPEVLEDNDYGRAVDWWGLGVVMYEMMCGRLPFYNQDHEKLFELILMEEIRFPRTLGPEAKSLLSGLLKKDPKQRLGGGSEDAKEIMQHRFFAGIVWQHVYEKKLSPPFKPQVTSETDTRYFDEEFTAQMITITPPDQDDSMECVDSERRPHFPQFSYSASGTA
T1 sequence (P10721 whole entry, looked up, stated change not applied): as the sequence (P10721 whole entry, looked up, change not shown) above
Chain of Platelet-derived growth factor receptor alpha (Mus musculus) (P26618 whole entry): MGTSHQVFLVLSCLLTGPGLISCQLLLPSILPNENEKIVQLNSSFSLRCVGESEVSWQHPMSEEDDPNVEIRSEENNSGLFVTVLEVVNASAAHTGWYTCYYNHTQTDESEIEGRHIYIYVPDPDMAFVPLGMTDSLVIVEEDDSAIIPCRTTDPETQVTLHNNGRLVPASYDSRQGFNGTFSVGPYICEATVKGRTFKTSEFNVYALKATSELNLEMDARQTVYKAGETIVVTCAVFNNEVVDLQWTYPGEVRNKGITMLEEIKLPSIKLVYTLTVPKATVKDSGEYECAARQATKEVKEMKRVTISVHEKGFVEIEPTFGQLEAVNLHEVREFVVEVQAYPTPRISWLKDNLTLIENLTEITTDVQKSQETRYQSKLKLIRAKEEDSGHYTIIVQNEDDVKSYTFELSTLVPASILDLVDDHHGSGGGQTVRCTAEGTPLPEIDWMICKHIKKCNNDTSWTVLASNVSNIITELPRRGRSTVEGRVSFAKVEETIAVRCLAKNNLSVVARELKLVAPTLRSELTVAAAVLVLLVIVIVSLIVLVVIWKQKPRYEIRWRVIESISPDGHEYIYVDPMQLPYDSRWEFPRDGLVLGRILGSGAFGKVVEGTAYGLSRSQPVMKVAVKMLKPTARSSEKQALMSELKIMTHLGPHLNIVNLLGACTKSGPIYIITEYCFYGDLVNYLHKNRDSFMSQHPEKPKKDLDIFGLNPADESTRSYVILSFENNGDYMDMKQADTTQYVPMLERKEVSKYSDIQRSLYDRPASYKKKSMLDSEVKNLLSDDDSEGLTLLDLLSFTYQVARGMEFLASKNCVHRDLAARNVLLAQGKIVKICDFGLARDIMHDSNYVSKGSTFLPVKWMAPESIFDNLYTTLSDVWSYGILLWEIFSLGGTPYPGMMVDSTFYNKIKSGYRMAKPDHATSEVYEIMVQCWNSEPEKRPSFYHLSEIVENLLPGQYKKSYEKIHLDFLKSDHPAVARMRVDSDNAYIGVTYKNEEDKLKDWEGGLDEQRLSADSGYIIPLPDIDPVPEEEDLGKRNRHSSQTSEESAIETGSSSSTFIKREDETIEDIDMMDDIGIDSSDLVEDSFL

CCN(CC)CCNC(=O)c1c(C)[nH]c(/C=C2\C(=O)Nc3ccc(F)cc32)c1C [SUNITINIB]
inhibition [1]: inactive | inhibition [2]: Active | inhibition [3]: Active | inhibition [4]: Active | inhibition [5]: Active | inhibition [6]: Active | inhibition [7]: Active | inhibition [8]: Active | inhibition [9]: Active | inhibition [10]: Active

COc1cc2nccc(Oc3ccc(NC(=O)Cc4ccc(Cl)c(C(F)(F)F)c4)cc3)c2cc1OC
TGI (Mus musculus [11]): Dose-dependent effect | Activity [12]: < 1% | Activity [13]: < 1% | IC50 [14]: 0.018 µM | IC50 [15]: 0.034 µM | GI50 [16]: 0.003 µM | GI50 [17]: 0.001 µM | EC50 [18]: < 0.1 µM | EC50 [19]: < 0.1 µM | EC50 [20]: < 0.1 µM | EC50 [21]: < 0.1 µM | EC50 [22]: < 0.1 µM | EC50 [23]: < 0.1 µM | EC50 [24]: < 0.1 µM | EC50 [25]: < 0.1 µM | inhibition [26]: Active | Activity (GISTT1 [27]): Dose-dependent effect | Activity (GISTT1 [28]): Dose-dependent effect | Activity (GISTT1 [29]): Dose-dependent effect | Tmax [30]: 0 h | AUC(0-t) [31]: 25.1 µg·h/mL | Tmax [32]: 9 h | bioavailability [33]: 50% | half-life [34]: 5.4 h | AUC(0-t) [35]: 12.6 µg·h/mL | bioavailability [36]: 43% | AUC(0-t) [37]: 5.32 µg·h/mL | Tmax [38]: 1.98 min | Tmax [39]: 5.33 h | bioavailability [40]: 81% | inhibition (Mus musculus [41]): Tde | inhibition (Mus musculus [42]): Tde | inhibition (Mus musculus [43]): inactive | inhibition (Mus musculus [44]): inactive | inhibition in vivo at 80 mg/kg/day [45]: 92.7% | inhibition in vivo at 20 mg/kg/day (GISTT1 [46]): 95.6% | TGI (Homo sapiens [47]): Dose-dependent effect | TGI (Homo sapiens [48]): Dose-dependent effect | Activity [49]: Non-Toxic | GI50 [50]: 0.004 µM | GI50 [51]: 0.013 µM
